The values below come from patent US4851572A, “γ-L-glutamyl-4-nitroanilide derivatives and process for determining γ-GTP activity using the same” (Wako Pure Chemical Industries, Ltd., priority 1987, dated 1989).

The target of data set [1] is T1, γ-GTP derived from bovine kidney (Bos taurus, UniProt G3N2D8).
T1 construct: γ-GTP derived from porcine kidney or bovine kidney; from tissue; host or cells: bovine kidney
Description: Measurement of γ-GTP activity with the substrate, bovine sample (rate assay, 410 nm). It counts as biochemical. Conditions: relative to Comparative Example 1 taken as 100, 37° C., 5 min. On the procedure:
(§1) Measurement of γ-GTP activity
(§2) 100 Millimols of tris(hydroxymethyl)aminomethane and 60 mmols of glycylglycine were added in 800 ml of deionized water, and pH of its solution was adjusted to 8.2 (at 25° C.) with hydrochloric acid, after which the resulting solution was made up to 1 liter with deionized water.
(§3) In deionized water was dissolved 15 mmols of the γ-L-glutamyl-3-hydroxymethyl-4-nitroanilide obtained in Example 1 to make a total volume of 1 liter.
(§4) As samples, there were used human serum and 7% aqueous bovine albumin solutions containing γ-GTP derived from porcine kidney or bovine kidney (hereinafter abbreviated as parcine sample and bovine sample, respectively).
(§5) To 50 μl of each sample was added 2.0 ml of the buffer solution .circle.1 , followed by preincubation at 37° C. for 3 minutes, and 0.5 ml of the substrate solution .circle.2 was added. After sufficient mixing, the resulting mixture was allowed to stand for 1 minute, after which the increase rate of absorbance at 410 nm was measured, and the γ-GTP activity value (IU/l) in the sample was calculated from the molecular absorption coefficient (7.6×10^6 cm^2 /mol) of 3-hydroxymethyl-4-nitroaniline generated.
(§6) 100 mmols of tris(hydroxymethyl)aminomethane and 60 mmols of glycylglycine were added in 800 ml of deionized water, and pH of its solution was adjusted to 8.2 (at 25° C.) with hydrochloric acid, after which the resulting solution was made up to 1 liter with deionized water.
(§7) In deionized water was dissolved 15 mmols of the γ-L-glutamyl-3-(β-hydroxyethyl)-4-nitroanilide obtained in Example 3 to make a total volume of 1 liter.
(§8) The same samples as in Example 5 were used.
(§9) To 50 μl of each sample was added 2.0 ml of the buffer solution .circle.1 , followed by preincubation at 37° C. for 3 minutes, and 0.5 ml of the substrate solution .circle.2 was added. After sufficient mixing, the resulting mixture was allowed to stand for 1 minute, after which the increase rate of absorbance at 410 nm was measured, and the γ-GTP activity value (IU/l) in the sample was calculated from the molecular absorption coefficient (7.3×10^6 cm^2 /mol) of 3-(β-hydroxyethyl)-4-nitroaniline generated. […]
(§10) To 50 μl of each sample was added 2.0 ml of the buffer solution .circle.1 , followed by preincubation at 37° C. for 3 minutes, and 0.5 ml of the substrate solution .circle.2 was added. After sufficient mixing, the resulting mixture was allowed to stand for 1 minute, after which the increase rate of absorbance at 410 nm was measured, and the γ-GTP activity value (IU/l) in the sample was calculated from the molecular absorption coefficient (8.8×10^6 cm^2 /mol) of p-nitroaniline generated. […]

The target of data set [2] is T2, γ-GTP derived from porcine kidney (Sus scrofa, UniProt P20735).
T2 construct: γ-GTP derived from porcine kidney or bovine kidney; from tissue; host or cells: porcine kidney
T2 sequence (P20735 1-379 limits assumed): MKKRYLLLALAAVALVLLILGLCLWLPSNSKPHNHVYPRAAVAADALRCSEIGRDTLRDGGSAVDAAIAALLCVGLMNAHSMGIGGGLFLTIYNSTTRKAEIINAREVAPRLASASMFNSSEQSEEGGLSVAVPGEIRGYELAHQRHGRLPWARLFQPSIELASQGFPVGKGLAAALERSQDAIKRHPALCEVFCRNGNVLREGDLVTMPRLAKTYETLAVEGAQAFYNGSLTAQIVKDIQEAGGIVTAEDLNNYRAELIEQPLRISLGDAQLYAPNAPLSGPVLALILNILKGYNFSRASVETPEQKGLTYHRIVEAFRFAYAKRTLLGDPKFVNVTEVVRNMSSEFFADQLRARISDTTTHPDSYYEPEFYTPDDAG
T2 sequence (P20735 380-568 limits assumed): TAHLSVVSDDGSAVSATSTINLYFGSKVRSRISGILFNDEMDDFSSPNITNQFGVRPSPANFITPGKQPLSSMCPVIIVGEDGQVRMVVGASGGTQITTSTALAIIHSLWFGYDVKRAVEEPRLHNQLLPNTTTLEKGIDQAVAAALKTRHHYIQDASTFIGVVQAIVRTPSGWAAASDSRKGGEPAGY
Put plainly: Measurement of γ-GTP activity with the substrate, porcine sample (rate assay, 410 nm). It counts as biochemical. Conditions: relative to Comparative Example 1 taken as 100, 37° C., 5 min. On the procedure:
as §1, §2, §3, §4, §5, §6, §7, §8, §9, §10

Data set [3] in a line: Solubility of the substrates in reagent solutions. Conditions: pH 8.2, reagent solution (buffer:substrate solution 4:1). It is filed as physicochemical. From the text: In Table 2 are shown the solubility of the substrates for measuring γ-GTP activity used in Examples 5 and 6 and Comparative Examples 1 and 2 in reagent solutions (reagent solutions being obtained by mixing each buffer solution and each substrate solution in the ratio of 4:1), and the results of stability test on the substrate solutions in the individual cases.

In the next data set the test system is γ-GTP. Put plainly: Difference in reactivity with γ-GTPs derived from various sources (human serum, porcine, bovine). Conditions: for Difference between max. and min. activity values: human serum, porcine and bovine samples, relative values, Comparative Example 1 = 100. It counts as biochemical. On the procedure:
as §4, §5
To 50 μl of each sample was added 2.0 ml of the buffer solution .circle.1 , followed by preincubation at 37° C. for 3 minutes, and 0.5 ml of the substrate solution .circle.2 was added. After sufficient mixing, the resulting mixture was allowed to stand for 1 minute, after which the increase rate of absorbance at 410 nm was measured, and the γ-GTP activity value (IU/l) in the sample was calculated from the molecular absorption coefficient (7.3×10^6 cm^2 /mol) of 3-(β-hydroxyethyl)-4-nitroaniline generated.
To 50 μl of each sample was added 2.0 ml of the buffer solution .circle.1 , followed by preincubation at 37° C. for 3 minutes, and 0.5 ml of the substrate solution .circle.2 was added. After sufficient mixing, the resulting mixture was allowed to stand for 1 minute, after which the increase rate of absorbance at 410 nm was measured, and the γ-GTP activity value (IU/l) in the sample was calculated from the molecular absorption coefficient (8.8×10^6 cm^2 /mol) of p-nitroaniline generated.
To 50 μl of each sample was added 2.0 ml of the buffer solution .circle.1 , followed by preincubation at 37° C. for 3 minutes, and 0.5 ml of the subdrate solution .circle.2 was added. After sufficient mixing, the resulting mixture was allowed to stand for 1 minute, after which the increase rate of absorbance at 410 nm was measured, and the γ-GTP activity value (IU/l) in the sample was calculated from the molecular absorption coefficient ([…]) of 3-carboxy-4-nitroaniline generated.
In Table 1, the values of Comparative Example 2 and Examples 5 and 6 are relative γ-GTP activity values taking those of Comparative Example 1 as 100. The γ-GTP activity values (IU/l) were calculated from an absorbance change (ΔE/5 min) at 410 nm for 5 minutes after initiation of the reaction.

For data set [4], the target named is T3, γ-GTP (human serum) (Homo sapiens, UniProt P19440).
T3 construct: As samples, there were used human serum; from tissue; host or cells: human serum
T3 sequence (P19440 1-380 limits assumed): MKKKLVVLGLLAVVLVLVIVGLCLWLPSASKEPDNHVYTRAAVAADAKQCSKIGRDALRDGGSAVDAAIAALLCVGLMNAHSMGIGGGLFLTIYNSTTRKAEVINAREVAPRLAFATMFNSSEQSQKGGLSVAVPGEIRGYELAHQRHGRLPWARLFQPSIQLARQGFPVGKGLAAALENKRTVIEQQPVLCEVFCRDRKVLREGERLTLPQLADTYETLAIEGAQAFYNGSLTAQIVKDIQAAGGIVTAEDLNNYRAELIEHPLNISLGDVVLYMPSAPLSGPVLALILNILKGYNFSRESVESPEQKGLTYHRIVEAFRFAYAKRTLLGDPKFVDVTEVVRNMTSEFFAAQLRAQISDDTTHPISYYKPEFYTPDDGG
T3 sequence (P19440 381-569 limits assumed): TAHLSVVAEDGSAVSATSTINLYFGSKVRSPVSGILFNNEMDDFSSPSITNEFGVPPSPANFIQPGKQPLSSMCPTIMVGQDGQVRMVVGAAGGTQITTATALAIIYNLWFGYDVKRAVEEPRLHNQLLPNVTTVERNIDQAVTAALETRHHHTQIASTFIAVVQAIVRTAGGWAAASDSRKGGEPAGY
Put plainly: Measurement of γ-GTP activity with the substrate, human serum sample (rate assay, 410 nm). It counts as biochemical. Conditions: relative to Comparative Example 1 taken as 100, 37° C., 5 min. Here is the method: as §1, §2, §3, §4, §5, §6, §7, §8, §9, §10

A further data set deals with T4, γ-GTP (human sera) (Homo sapiens, UniProt P19440).
T4 construct: heavy and light chain from one precursor), not purified
T4 sequence (P19440 whole entry): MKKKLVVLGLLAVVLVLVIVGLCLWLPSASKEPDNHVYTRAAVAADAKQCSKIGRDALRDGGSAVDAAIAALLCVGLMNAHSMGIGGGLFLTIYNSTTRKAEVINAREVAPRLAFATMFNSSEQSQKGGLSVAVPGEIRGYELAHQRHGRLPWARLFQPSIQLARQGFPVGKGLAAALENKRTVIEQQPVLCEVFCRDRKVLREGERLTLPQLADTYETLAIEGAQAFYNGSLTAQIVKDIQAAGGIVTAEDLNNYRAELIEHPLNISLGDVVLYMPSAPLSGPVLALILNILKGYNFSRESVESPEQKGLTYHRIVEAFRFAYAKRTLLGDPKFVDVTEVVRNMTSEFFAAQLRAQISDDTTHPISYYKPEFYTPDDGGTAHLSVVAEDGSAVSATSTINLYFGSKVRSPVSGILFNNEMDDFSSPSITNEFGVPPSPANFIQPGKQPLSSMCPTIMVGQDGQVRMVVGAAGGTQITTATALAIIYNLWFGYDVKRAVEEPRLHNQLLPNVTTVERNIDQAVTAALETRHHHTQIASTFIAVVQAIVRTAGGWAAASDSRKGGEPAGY
Put plainly: Measurement of γ-GTP activity in human sera with Hitachi automatic analyzer Model 7150 (precision, correlation). It counts as biochemical. Conditions: for Average values (measured values of human sera): n=50 human sera; for Average / Coefficient of variation (C.V.) / Maximum / Minimum: within-run precision. On the procedure:
(§11) The buffer solution prepared in Example 5 was used.
(§12) In deionized water was dissolved 10 mmols of the γ-L-glutamyl-3-hydroxymethyl-4-nitroanilide obtained in Example 4 to make a total volume of 1 liter.
Fifty human sera were used as samples.
The buffer solution prepared in Comparative Example 2 was used.
The substrate solution prepared in Comparative Example 2 was used.
The same samples as in Example 7 were used.
Measurement was carried out under the same conditions as in Example 7, except that among CHEMISTRY PARAMETERS in Table 4, R1 VOLUME was changed to [320][100][NO], […] to [80][20][NO], and K FACTOR to 7123 (ε=9.5).
0.125M Tris-HCL buffer (pH 7.8, at 37° C., containing 96 mM glycylglycine and 13 mM magnesium chloride).
A 0.1N hydrochloric acid solution containing 20 mM of γ-L-glutamyl-4-nitroanilide.
Measurement was carried out under the same conditions as in Example 7, except that among CHEMISTRY PARAMETERS in Table 4, K FACTOR was changed to 6835 (ε=9.90).
In FIG. 1 is shown the correlation of the values measured for the individual human sera in Example 7 with those in Comparative Example 3. The coefficient of correlation, the regression equation, and the like, obtained by statistical processing, etc. are shown below.
In FIG. 2 is shown the correlation of the values measured for the individual human sera in Example 7 with those in Comparative Example 4. The coefficient of correlation, the regression equation, and the like, obtained by statistical processing, etc. are shown below.

For data set [5], the target named is T3, γ-GTP (human serum). Conditions: reported by Leslie M. Shaw (Clinical Chemistry, 23, 79 (1977)); cited from earlier work.
Data set [6] deals with γ-GTP (porcine kidney). Conditions: reported by Leslie M. Shaw (Clinical Chemistry, 23, 79 (1977)); cited from earlier work.
For data set [7] the following is noted: background statement, cited from earlier work.
The next data set concerns γ-GTP (bovine kidney). Description: Km value, γ-GTP from bovine kidney. It is filed as biochemical. An excerpt:
(§13) In Table 3 are shown the results of measuring, by a conventional method, Km values of γ-L-glutamyl-3-hydroxymethyl-4-nitroanilide, which is a compound of this invention, for each of γ-GTPs derived from human serum, porcine kidney and bovine kidney.

Data set [8] has as its system γ-GTP (porcine kidney). Put plainly: Km value, γ-GTP from porcine kidney. It counts as biochemical.
Description: as §13
In Table 3 are also shown, for reference, Km values of γ-L-glutamyl-3-carboxy-4-nitroanilide and γ-L-glutamyl-p-nitroanilide reported by Leslie M. Shaw (Clinical Chemistry, 23, 79 (1977)).

In data set [9] the target is T2, γ-GTP derived from porcine kidney. Description: Calibration curve linearity with γ-GTP derived from porcine kidney in 7% aqueous bovine albumin solution. It counts as biochemical. Conditions: 7% aqueous bovine albumin solution containing porcine kidney γ-GTP. Here is the method: as §11, §12
The conditions of data set [10]: suitable pH range for determining γ-GTP activity; background statement; cited from earlier work.

≈ marks a conversion by molar mass, not a printed value. Where two headings read alike, the source gives them in different places.

T1 sequence (G3N2D8 1-379 limits assumed): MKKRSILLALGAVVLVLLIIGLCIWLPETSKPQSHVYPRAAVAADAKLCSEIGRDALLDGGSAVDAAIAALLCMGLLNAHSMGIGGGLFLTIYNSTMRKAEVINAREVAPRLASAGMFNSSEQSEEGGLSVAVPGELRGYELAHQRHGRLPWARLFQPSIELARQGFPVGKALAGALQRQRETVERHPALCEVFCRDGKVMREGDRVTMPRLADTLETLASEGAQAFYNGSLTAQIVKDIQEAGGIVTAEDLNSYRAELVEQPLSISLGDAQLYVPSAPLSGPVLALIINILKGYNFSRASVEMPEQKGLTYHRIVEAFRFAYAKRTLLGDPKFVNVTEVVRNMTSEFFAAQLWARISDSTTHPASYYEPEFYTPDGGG
T1 sequence (G3N2D8 380-568 limits assumed): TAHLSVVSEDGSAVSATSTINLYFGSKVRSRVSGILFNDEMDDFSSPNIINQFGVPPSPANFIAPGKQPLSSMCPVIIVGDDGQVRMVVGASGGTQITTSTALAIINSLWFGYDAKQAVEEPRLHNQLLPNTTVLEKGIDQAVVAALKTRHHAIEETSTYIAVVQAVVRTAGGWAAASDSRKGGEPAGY

As usually defined, the Solubility is the concentration that dissolves in the medium under given conditions. Read a low Solubility as little dissolved substance. As for `N[C@@H](CCC(=O)Nc1ccc([N+](=O)[O-])c(CCO)c1)C(=O)O` [γ-L-glutamyl-3-(β-hydroxyethyl)-4-nitroanilide], the “relative γ-GTP activity value, bovine sample” value in [1] is recorded as 85. Further, in [2], the “relative γ-GTP activity value, porcine sample” value turned out to be 87. The same compound had a Solubility in data set [3] (5° C.) of 10000 µM (≈ 3.11 mg/mL). The “Difference between max. and min. activity values” in the data set with γ-GTP was 10. On γ-GTP (human serum) [4], the “relative γ-GTP activity value, human serum” value stood at 95.
As usually defined, the Km is the concentration of substrate that gives half-maximal velocity. As for `N[C@@H](CCC(=O)Nc1ccc([N+](=O)[O-])c(C(=O)O)c1)C(=O)O` [γ-L-glutamyl-3-carboxy-4-nitroanilide, reference compound], the “Average values (measured values of human sera)” value (“Average values” below) on γ-GTP (human sera) is 106.72. Moreover, the Km at γ-GTP (human serum) [5] is 1190 µM; in the data set on γ-GTP (porcine kidney) [6], 1630 µM. For the same compound, the “relative γ-GTP activity value, bovine sample” value in data set [1] is recorded as 94. Moreover, in data set [2], the “relative γ-GTP activity value, porcine sample” value was found to be 127. In data set [3] (5° C.), this compound returned a Solubility of no less than 100000 µM. Also, the “Difference between max. and min. activity values” in the data set on γ-GTP worked out at 33. In the data set with γ-GTP (various sources of γ-GTP), the “difference in reactivity with γ-GTPs derived from various sources (in words)” value is recorded as “vary more widely in reactivity with γ-GTPs derived from various sources”. Also, in [7], the “solubility and stability after dissolution versus γ-glutamyl-p-nitroanilide (in words)” value is “much superior”. Further, the “relative γ-GTP activity value, human serum” value on γ-GTP (human serum) [4] is listed as 103.
Take `N[C@@H](CCC(=O)Nc1ccc([N+](=O)[O-])c(CO)c1)C(=O)O` [γ-L-glutamyl-3-hydroxymethyl-4-nitroanilide]: the Coefficient of correlation at γ-GTP (human sera) (Example 7 vs Comparative Example 3, n=50 human sera) is given as 0.9998. Further, the Coefficient of correlation at γ-GTP (human sera) (Example 7 vs Comparative Example 4, n=50 human sera) is 0.9998. The “within-run precision (in words)” value on γ-GTP (human sera) (Table 5) is “good precision”. Further, the “Average values” value at γ-GTP (human sera) came to 115.94. Also, on γ-GTP (human sera) (sample 1, n=40), the Average is 66.4 IU/l, the “Coefficient of variation (C.V.)” value is reported as 0.95, the Maximum turned out to be 68 IU/l and the Minimum worked out at 66 IU/l. At γ-GTP (human sera) (sample 2, n=40), the Average stood at 137.0 IU/l, the “Coefficient of variation (C.V.)” value is on record as 0.83, the Maximum amounted to 139 IU/l and the Minimum was found to be 134 IU/l. The Michaelis constant (Km) with γ-GTP (bovine kidney) turned out to be 670 µM. Further, the Km with γ-GTP (porcine kidney) [8] is 670 µM. In addition, the “relative γ-GTP activity value, bovine sample” value in data set [1] stood at 151. In addition, in data set [2], the “relative γ-GTP activity value, porcine sample” value was 139. This compound had a Solubility in data set [3] (5° C.) of no less than 100000 µM. Further, the “linearity of calibration curve, upper limit” value in [9] is listed as “about 6400 IU/l”. In the data set on γ-GTP, the “Difference between max. and min. activity values” turned out to be 12. The “relative γ-GTP activity value, human serum” value at γ-GTP (human serum) [4] came out at 148.
On to `N[C@@H](CCC(=O)Nc1ccc([N+](=O)[O-])c(S(=O)(=O)O)c1)C(=O)O` [γ-L-glutamyl-3-sulfo-4-nitroanilide], for which the “solubility and stability after dissolution versus γ-glutamyl-p-nitroanilide (in words)” value in data set [7] is given as “much superior”.
On to `N[C@@H](CCC(=O)Nc1ccc([N+](=O)[O-])cc1)C(=O)O` [γ-L-glutamyl-p-nitroanilide, reference compound], for which the “solubility (in words)” value in data set [10] was “slightly soluble”. For the same compound, the “Average values” value on γ-GTP (human sera) amounted to 115.02. Besides, the Michaelis constant (Km) is 1330 µM at γ-GTP (human serum) [5] and 1870 µM in the data set with γ-GTP (porcine kidney) [6]. Moreover, in data set [1], the “relative γ-GTP activity value, bovine sample” value was found to be 100. Besides, the “relative γ-GTP activity value, porcine sample” value in data set [2] was found to be 100. This compound showed a Solubility in data set [3] (37° C.) of 5000 µM (≈ 1.34 mg/mL). Also, the “stability (in words)” value in [7] (suitable pH range for dissolution) is recorded as “unstable”. Besides, the “relative γ-GTP activity value, human serum” value at γ-GTP (human serum) [4] stood at 100.
